Literature values as cited in patent publication US20260263483A1, “LOW DOSE THERAPEUTIC SUPPLEMENT TO MODULATE CYTOKINES” (VIRBAC CORPORATION, priority 2023, published 2026).
Where two headings read alike, the source gives them in different places.

Assays:
[1] = system: hepatic stellate cells (HSCs)
TGF-β1 = conditions: Balb/c 3T3 cells
[2] = rats, administrated orally
diabetic rats [3] = system: diabetic rats
Wistar albino rats = conditions: gentamicin-induced renal damage, oral 2, 5 and 10 mg/kg in 14% DMSO
diabetic rats [4] = conditions: 60 mg/kg p.o., five weeks

In the case of C=C(C)[C@@H]1CC[C@]2(CO)CC[C@]3(C)[C@H](CC[C@@H]4[C@@]5(C)CC[C@H](O)C(C)(C)[C@@H]5CC[C@]43C)[C@@H]12 [betulin], the “ethanol-induced activation of hepatic stellate cells” value [1] is listed as “inhibited”.

In the case of C[C@H]1[C@H](C)CC[C@]2(C(=O)O)CC[C@]3(C)C(=CC[C@@H]4[C@@]5(C)CC[C@H](O)C(C)(C)C5CC[C@]43C)[C@H]12 (some centres unmarked) [ursolic acid], the “concentration that inhibits the specific binding of TGF-β 1 by 50%” value (TGF-β1) is listed as 3.0 µg/mL, the “ingested ursolic acid recovered in plasma” value [2] is listed as “about 0.6%” and the “protective effects on diabetic rats” value (diabetic rats [3]; high-dose, 50 mg/kg) is listed as “significant protective effects”. For the same molecule, the “protective effects on diabetic rats” value (diabetic rats [3]; low-dose, 25 mg/kg) was “significant protective effects” and the reno-protective effect (Wistar albino rats) was “reno-protective effect”.

In the case of CC1(C)CC[C@]2(C(=O)O)CC[C@]3(C)C(=CC[C@@H]4[C@@]5(C)CC[C@H](O)C(C)(C)[C@@H]5CC[C@]43C)[C@@H]2C1 [oleanolic acid], the kidney function (diabetic rats [4]) is listed as “ameliorates kidney function” and the “expression of cytokines and collagen” value (silicotic rats) is listed as “decrease the expression of cytokines and collagen”.
